“Also recorded” adds a separate entry of the source.
Legend:
[1] = system: E. saccharolyticus DPC 4902; test: Well diffusion assay, spectrum of bacteriocin activity; type: cell-based; settings: 50 μl filtered supernatant of E. coli Tuner (DE3) transformants encoding the pediocin PA-1 leader, 7 mm wells, triplicate
Protocol: (§1) Bacteriocin activity was determined using well diffusion assays (WDAs). For Tuner^TM (DE3) E. coli transformants both the cell supernatant and the cell lysates were analyzed for antimicrobial activity, whilst only the supernatants were analyzed for L. paracasei NFBC338 cells. Supernatant was isolated by centrifugation of the liquid cultures at 4000 RCF for 15 min, these supernatants were then filtered using 0.20 μm membrane filters. For cell lysates, cell pellets were resuspended in 5 ml of phosphate-buffered saline (PBS), cells were lysed by sonication using a MSE Soniprep 150 (MSE, London, UK). Lysates were subsequently centrifuged at 4000 RCF for 15 min and the resulting supernatants were filtered using 0.20 μm membrane filters. For the indicator plates, 50 μl of an overnight culture of the indicator strain was added to the appropriate media containing 1% agar. Plates were cooled and 7 mm wells were bored in the agar. 50 μl of the cell supernatants/lysates being tested were added to each well and plates were refrigerated for 2 h prior to incubation under the appropriate conditions. WDAs were carried out in triplicate for each bacteriocin.
(§2) E. coli Tuner^TM (DE3) cells transformed with the newly constructed plasmids were grown in LB supplemented with glucose to maintain a low-copy number and bacteriocin expression was induced by co-incubation of the clones with 50 μM IPTG for 3 h. WDAs were used to identify bacteriocin activity from the bacterial supernatants and cell lysates. Bacteriocins were exclusively found in the bacterial supernatant. Antimicrobial activity was lower in cases where the native leader of the bacteriocin sequence was used; with only four of the nine strains displaying zones of inhibition against a sensitive indicator (pediocin 20336a has an identical leader to pediocin PA-1). For expression in L. paracasei NFBC338, cells were transformed by electroporation with the bacteriocin-containing pNZ44 vectors. Positive transformants were grown overnight and the neutralized cell free supernatant was used to identify bacteriocin production in WDAs.
(§3) The spectrum of activity was determined using WDAs against 32 indicator strains for bacteriocins produced by the E. coli transformants encoding the pediocin leader (Table 2). Despite being of the same class of bacteriocins, these novel antimicrobials display a varying spectrum of activity. […] Many of these bacteriocins, however, can inhibit a wide range of Gram positive bacteria including potential pathogens such as Enterococcus faecalis. As with most class IIa bacteriocins, these also display potent anti-listerial activity.

E.mundtii LMG 10748 = test: as above; type: cell-based; settings: 50 μl filtered supernatant of E. coli Tuner (DE3) transformants encoding the pediocin PA-1 leader, 7 mm wells, triplicate
Protocol: as §1, §2, §3

[2] = system: Enterococcus faecalis LMG 7397; test: as above; type: cell-based; settings: 50 μl filtered supernatant of E. coli Tuner (DE3) transformants encoding the pediocin PA-1 leader, 7 mm wells, 1% agar, triplicate
Protocol: as §1, §2, §3

L. apodemi DSM 16654 = test: as above; type: cell-based; settings: 50 μl filtered supernatant of E. coli Tuner (DE3) transformants encoding the pediocin PA-1 leader, 7 mm wells, triplicate
Protocol: as §1, §2, §3

L. crustorum JCM 15951 = test: as above; type: cell-based; settings: 50 μl filtered supernatant of E. coli Tuner (DE3) transformants encoding the pediocin PA-1 leader, 7 mm wells, triplicate
Protocol: as §1, §2, §3

L. mali DSM 20444 = test: as above; type: cell-based; settings: 50 μl filtered supernatant of E. coli Tuner (DE3) transformants encoding the pediocin PA-1 leader, 7 mm wells, triplicate
Protocol: as §1, §2, §3

L. nodensis DSM 16982 = test: as above; type: cell-based; settings: 50 μl filtered supernatant of E. coli Tuner (DE3) transformants encoding the pediocin PA-1 leader, 7 mm wells, triplicate
Protocol: as §1, §2, §3

L. plantarum DSM 13273 = test: as above; type: cell-based; settings: 50 μl filtered supernatant of E. coli Tuner (DE3) transformants encoding the pediocin PA-1 leader, 7 mm wells, triplicate
Protocol: as §1, §2, §3

[3] = system: Li. monocytogenes DPC 6893; test: as above; type: cell-based; settings: 50 μl filtered supernatant of E. coli Tuner (DE3) transformants encoding the pediocin PA-1 leader, 7 mm wells, triplicate
Protocol: as §1, §2, §3

[4] = system: Li. monocytogenes DPC 6894; test: as above; type: cell-based; settings: 50 μl filtered supernatant of E. coli Tuner (DE3) transformants encoding the pediocin PA-1 leader, 7 mm wells, triplicate
Protocol: as §1, §2, §3

[5] = system: Li. monocytogenes WSL 1416; test: as above; type: cell-based; settings: 50 μl filtered supernatant of E. coli Tuner (DE3) transformants encoding the pediocin PA-1 leader, 7 mm wells, triplicate
Protocol: as §1, §2, §3

[6] = system: Listeria innocua DPC 3572; test: as above; type: cell-based; settings: 50 μl filtered supernatant of E. coli Tuner (DE3) transformants encoding the pediocin PA-1 leader, 7 mm wells, triplicate
Protocol: as §1, §2, §3

P. clausenii DSM 14800 = test: as above; type: cell-based; settings: 50 μl filtered supernatant of E. coli Tuner (DE3) transformants encoding the pediocin PA-1 leader, 7 mm wells, triplicate
Protocol: as §1, §2, §3

[7] = system: P. ethanolidurans DSM 22301; test: as above; type: cell-based; settings: 50 μl filtered supernatant of E. coli Tuner (DE3) transformants encoding the pediocin PA-1 leader, 7 mm wells, triplicate
Protocol: as §1, §2, §3

32 indicator strains = test: Well diffusion assays against the panel of 32 indicator strains; type: cell-based; settings: for Total no. of strains inhibited: of 32 indicator strains, supernatant of E. coli transformants encoding the pediocin leader; for antimicrobial activity / spectrum, in words: crude supernatant from the E. coli heterologous host, pediocin PA-1 leader
Protocol: as §1, §2, §3

L. innocua DPC3572 = test: Bacteriocin activity (BU/ml), dilution series in well diffusion assay; type: cell-based, Listeria innocua; settings: for Bacteriocin Activity (BU/ml) vs. L. innocua DPC3572: inverse of the highest dilution of bacterial supernatant showing activity in a well diffusion assay
Protocol: as §1, §2

L. amylophilus DSM 20509 = test: Well diffusion assay, spectrum of bacteriocin activity; type: cell-based; settings: 50 μl filtered supernatant of E. coli Tuner (DE3) transformants encoding the pediocin PA-1 leader, 7 mm wells, triplicate
Protocol: as §1, §2, §3

[8] = system: Pediococcus stilesii DSM 18001; test: as above; type: cell-based; settings: 50 μl filtered supernatant of E. coli Tuner (DE3) transformants encoding the pediocin PA-1 leader, 7 mm wells, triplicate
Protocol: as §1, §2, §3

[9] = produced by E. coli Tuner (DE3)
[10] = produced by L. paracasei NFBC338, neutralized cell free supernatant

| Substance | radius of the zone of inhibition [1] | radius of the zone of inhibition (E.mundtii LMG 10748) | radius of the zone of inhibition [2] | radius of the zone of inhibition (L. apodemi DSM 16654) | radius of the zone of inhibition (L. mali DSM 20444) | radius of the zone of inhibition [3] | radius of the zone of inhibition [4] | radius of the zone of inhibition [5] | radius of the zone of inhibition [6] | radius of the zone of inhibition [7] | Total no. of strains inhibited (32 indicator strains) | Bacteriocin Activity (BU/ml) vs. L. innocua DPC3572 (L. innocua DPC3572; [9]) | Bacteriocin Activity (BU/ml) vs. L. innocua DPC3572 (L. innocua DPC3572; [10]) | also measured |
| --- | --- | --- | --- | --- | --- | --- | --- | --- | --- | --- | --- | --- | --- | --- |
| SRYYGNGITCG-KHKCTVNWGQAWTCGVNRLANFGH–G————–NC— (bicyclic or more) [Agilicin (Agl), novel pediocin-like class IIa bacteriocin encoded by L. agilis DSM 20509, heterologously expressed] | 3.33 ± 0.47 millimeters | 3 ± 0 millimeters | 2.17 ± 0.24 millimeters | 2.67 ± 0.47 millimeters | 4.50 ± 0.41 millimeters | 2 ± 0 millimeters | 4 ± 0 millimeters | 2 ± 0.82 millimeters | 5 ± 0 millimeters | 3.33 ± 0.47 millimeters | 14 | ++ (++ = 320 – 2560 BU/ml) | ++ (++ = 320 – 2560 BU/ml) | radius of the zone of inhibition (L. crustorum JCM 15951): 0.33 ± 0.47 millimeters; radius of the zone of inhibition (L. nodensis DSM 16982): 3.50 ± 0.71 millimeters; radius of the zone of inhibition (L. plantarum DSM 13273): 0.33 ± 0.47 millimeters; radius of the zone of inhibition (P. clausenii DSM 14800): 0.67 ± 0.47 millimeters |
| –KNYGNGVYCTKKHGYKVDWGQAWSIIGNNSAANSTTRGAAGWKSK—- [Aquaticin (Aqu), novel pediocin-like class IIa bacteriocin encoded by L. aquaticus DSM 21051; peptide not identified by MALDI-TOF] |  |  |  |  |  |  |  |  |  |  | 0 |  |  | antimicrobial activity / spectrum, in words (32 indicator strains; listed as Aquaticin): failed to display antimicrobial activity; antimicrobial activity / spectrum, in words (32 indicator strains; listed as aquaticin): activity was not seen |
| –KYYGNGVHCG-KKTCYVDWGQATASIGKIIVNGWTQHGPWAHR———- (disulfide) [Penocin A (PenA), previously characterized class IIa bacteriocin, here encoded by P. pentosaceus DSM 20336, heterologously expressed] | 1.33 ± 0.94 millimeters | 1.33 ± 0.94 millimeters | 0.67 ± 0.47 millimeters |  | 1.50 ± 1.08 millimeters | 0.67 ± 0.47 millimeters | 0.67 ± 0.47 millimeters | 0.67 ± 0.47 millimeters | 2.50 ± 0.41 millimeters | 2 ± 1.41 millimeters | 12 | ++ (++ = 320 – 2560 BU/ml) | + (+ = 0 – 160 BU/ml) | radius of the zone of inhibition (L. amylophilus DSM 20509): 0.67 ± 0.47 millimeters; radius of the zone of inhibition (P. clausenii DSM 14800): 1 ± 0.82 millimeters; radius of the zone of inhibition [8]: 0.67 ± 0.47 millimeters |
| –KYYGNGVSCG-KHSCSVDWGKATTCTINNSAMAWATSGHQGNHKC—- (bicyclic or more) [Rennicin B (RenB), novel pediocin-like class IIa bacteriocin encoded by L. rennini DSM 20253, heterologously expressed] |  |  |  |  |  |  |  |  |  |  | 0 |  | + (+ = 0 – 160 BU/ml) | antimicrobial activity / spectrum, in words (32 indicator strains): failed to display antimicrobial activity; also recorded: did not display activity; level of activity when expressed in L. paracasei NFBC338, in words (L. innocua DPC3572; expressed in L. paracasei NFBC338): equal levels of activity compared to rennicin A |
| –KYYGNGVSCG-KHTCKVNWGQAWNESVNRWGNSWVNGLTGLRQH— (disulfide) [Futcin (Fut), novel pediocin-like class IIa bacteriocin encoded by L. futsaii JCM 17355, heterologously expressed] | 2 ± 0 millimeters | 1.83 ± 0.24 millimeters | 1.67 ± 0.47 millimeters | 0.33 ± 0.47 millimeters | 2.17 ± 0.85 millimeters |  | 0.83 ± 0.24 millimeters | 1 ± 0 millimeters | 2.00 ± 0 millimeters | 3 ± 0 millimeters |  | + (+ = 0 – 160 BU/ml) |  | Total no. of strains inhibited (32 indicator strains; listed as Fut): 9; Total no. of strains inhibited (32 indicator strains; listed as futcin): nine |
| –KYYGNGVSCS-KHSCSVDWGKALTCTINNGAMAWTTGGHQGNHKC—- (bicyclic or more) [Rennicin A (RenA), novel pediocin-like class IIa bacteriocin encoded by L. rennini DSM 20253, heterologously expressed] | 2.33 ± 0.47 millimeters | 3.33 ± 0.47 millimeters | 3 ± 0 millimeters | 0.67 ± 0.47 millimeters | 1 ± 0 millimeters | 2 ± 0 millimeters | 2 ± 1.41 millimeters | 2.67 ± 0.47 millimeters | 6.33 ± 0.94 millimeters | 1.50 ± 0.41 millimeters | 10 | + (+ = 0 – 160 BU/ml) | + (+ = 0 – 160 BU/ml) |  |
| —-KYYGNGLHIPKHGKPYINWGQAIQSIGKISYHGWVNGITSGAAGVGRH [Acidicin (Acd), novel pediocin-like class IIa bacteriocin encoded by L. acidipiscis DSM 15836, heterologously expressed] |  |  |  |  | 1.50 ± 0.41 millimeters |  |  |  |  |  | 1 |  |  | antimicrobial activity / spectrum, in words (32 indicator strains): displayed activity exclusively against L. mali |

Reference: article PMC6036575, “Reincarnation of Bacteriocins From the Lactobacillus Pangenomic Graveyard” (Frontiers in Microbiology, 2018)
